Measurements from patent US8937064B2, “Pyrazolo[1,5-a]pyrimidines useful as JAK2 inhibitors” (Vertex Pharmaceuticals Incorporated, priority 2007, dated 2015).

Legend:
[1] = target: T1, JAK3 (Homo sapiens, UniProt P52333); assay: JAK3 Inhibition Assay; type: biochemical; conditions: 1 nM JAK3, 1 μM poly(Glu)4Tyr, 5 μM ATP, 25° C., 33P incorporation
T1 sequence (P52333 1-1124): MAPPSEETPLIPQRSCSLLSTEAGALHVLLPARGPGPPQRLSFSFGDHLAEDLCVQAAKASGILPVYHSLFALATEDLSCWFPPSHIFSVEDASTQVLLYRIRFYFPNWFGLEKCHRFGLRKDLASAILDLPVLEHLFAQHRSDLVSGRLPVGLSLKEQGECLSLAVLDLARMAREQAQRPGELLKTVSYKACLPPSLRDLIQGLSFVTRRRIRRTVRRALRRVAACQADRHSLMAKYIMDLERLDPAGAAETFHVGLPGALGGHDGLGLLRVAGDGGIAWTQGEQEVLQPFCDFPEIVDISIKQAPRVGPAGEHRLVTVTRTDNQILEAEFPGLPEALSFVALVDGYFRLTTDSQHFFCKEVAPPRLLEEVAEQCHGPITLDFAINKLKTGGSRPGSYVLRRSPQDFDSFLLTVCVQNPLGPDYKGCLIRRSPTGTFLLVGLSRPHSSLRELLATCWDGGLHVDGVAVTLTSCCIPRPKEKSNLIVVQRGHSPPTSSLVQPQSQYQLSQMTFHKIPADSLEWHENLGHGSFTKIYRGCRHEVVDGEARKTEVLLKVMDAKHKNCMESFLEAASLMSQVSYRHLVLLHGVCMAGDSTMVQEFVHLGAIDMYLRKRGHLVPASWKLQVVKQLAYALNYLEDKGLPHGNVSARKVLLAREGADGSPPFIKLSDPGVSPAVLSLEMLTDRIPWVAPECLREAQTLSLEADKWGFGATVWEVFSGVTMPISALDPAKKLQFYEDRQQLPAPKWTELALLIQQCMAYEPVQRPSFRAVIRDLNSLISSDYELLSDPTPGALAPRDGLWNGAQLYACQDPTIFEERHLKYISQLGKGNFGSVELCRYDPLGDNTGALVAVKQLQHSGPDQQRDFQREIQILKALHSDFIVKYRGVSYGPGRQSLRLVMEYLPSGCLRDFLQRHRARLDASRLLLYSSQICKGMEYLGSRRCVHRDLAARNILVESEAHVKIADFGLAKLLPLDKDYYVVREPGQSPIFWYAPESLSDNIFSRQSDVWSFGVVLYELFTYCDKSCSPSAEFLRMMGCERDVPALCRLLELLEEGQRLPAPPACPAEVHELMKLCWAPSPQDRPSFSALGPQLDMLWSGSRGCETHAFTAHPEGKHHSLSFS

[2] = target: JAK-2 enzyme (Homo sapiens, UniProt O60674); assay: JAK2 Inhibition Assay
Chain of JAK-2 enzyme (O60674 whole entry): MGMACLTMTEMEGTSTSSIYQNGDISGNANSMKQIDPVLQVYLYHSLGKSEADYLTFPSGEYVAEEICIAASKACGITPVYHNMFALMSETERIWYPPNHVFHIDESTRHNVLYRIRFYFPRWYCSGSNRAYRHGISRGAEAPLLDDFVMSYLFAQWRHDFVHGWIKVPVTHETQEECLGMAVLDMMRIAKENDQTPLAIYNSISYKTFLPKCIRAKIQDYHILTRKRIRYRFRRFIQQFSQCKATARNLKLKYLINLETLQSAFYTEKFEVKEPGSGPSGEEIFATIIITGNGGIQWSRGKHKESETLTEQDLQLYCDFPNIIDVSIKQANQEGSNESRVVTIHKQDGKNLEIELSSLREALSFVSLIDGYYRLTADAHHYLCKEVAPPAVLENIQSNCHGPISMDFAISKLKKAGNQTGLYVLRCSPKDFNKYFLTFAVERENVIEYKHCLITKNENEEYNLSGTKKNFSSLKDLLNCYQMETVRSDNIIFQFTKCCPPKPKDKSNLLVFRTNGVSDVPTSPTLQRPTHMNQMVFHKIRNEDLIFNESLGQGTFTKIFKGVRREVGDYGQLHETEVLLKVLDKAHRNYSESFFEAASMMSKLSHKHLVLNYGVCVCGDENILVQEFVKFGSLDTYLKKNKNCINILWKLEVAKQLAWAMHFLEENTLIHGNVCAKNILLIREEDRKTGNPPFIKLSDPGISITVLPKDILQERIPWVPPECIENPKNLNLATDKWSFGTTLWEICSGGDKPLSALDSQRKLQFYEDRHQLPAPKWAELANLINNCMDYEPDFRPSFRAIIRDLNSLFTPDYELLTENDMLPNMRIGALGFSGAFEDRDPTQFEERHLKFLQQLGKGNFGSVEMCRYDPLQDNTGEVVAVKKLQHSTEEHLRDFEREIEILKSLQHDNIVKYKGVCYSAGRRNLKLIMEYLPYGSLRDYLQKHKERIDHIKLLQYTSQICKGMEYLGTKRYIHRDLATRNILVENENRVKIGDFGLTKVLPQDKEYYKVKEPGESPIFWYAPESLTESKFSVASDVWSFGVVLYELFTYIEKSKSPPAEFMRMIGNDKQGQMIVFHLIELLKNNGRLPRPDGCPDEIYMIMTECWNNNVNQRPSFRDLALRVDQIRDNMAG

Ki [1] [nM] | Ki [2] [nM] | Structure (SMILES)
10 to 100 | < 10 | CCC[C@H](Nc1cc(-c2cnn3cccnc23)ncn1)c1ccc(F)cc1 [Compound 116]
10 to 100 | < 10 | C[C@H](Nc1cc(-c2cnn3cccnc23)ncn1)c1ccc(F)cc1F [Compound 117]
10 to 100 | < 10 | C[C@H](Nc1cc(-c2cnn3cccnc23)ncn1)c1ccc(F)c(F)c1 [Compound 118]
10 to 100 | < 10 | COCCNc1nc(N[C@@H](C)c2ccc(F)cc2)cc(-c2c(N)nn3cccnc23)n1 [Compound 119]
100 to 500 | 10 to 100 | CC(C)[C@@H](Nc1cc(-c2cnn3cccnc23)ncn1)c1ccc(F)cc1F [Compound 120]
10 to 100 | < 10 | CC(C)[C@H](Nc1cc(-c2cnn3cccnc23)ncn1)c1ccc(F)cc1F [Compound 121]
10 to 100 | < 10 | CCC[C@H](Nc1cc(-c2cnn3cccnc23)ncn1)c1ccc(F)cc1F [Compound 122]
100 to 500 | 10 to 100 | CCC[C@@H](Nc1cc(-c2cnn3cccnc23)ncn1)c1ccc(F)cc1F [Compound 123]
10 to 100 | < 10 | C[C@H](Nc1cc(-c2c(N)nn3cccnc23)nc(NCCN2CCOCC2)n1)c1ccc(F)cc1 [Compound 124]
100 to 500 | 10 to 100 | CC(C)[C@H](Nc1cc(-c2c(N)nn3cccnc23)nc(N2CCOCC2)n1)c1ccc(F)cc1F [Compound 125]
< 10 | < 10 | COCCOc1nc(N[C@@H](C)c2ccc(F)cc2F)cc(-c2c(N)nn3cccnc23)n1 [Compound 126]
100 to 500 | 10 to 100 | CCN(CC)C(=O)COc1nc(N[C@@H](C)c2ccc(F)cc2F)cc(-c2c(N)nn3cccnc23)n1 [Compound 127]
10 to 100 | < 10 | C[C@H](Nc1cc(-c2c(N)nn3cccnc23)nc(OCCN2CCCC2=O)n1)c1ccc(F)cc1F [Compound 128]
100 to 500 | 10 to 100 | CC(C)Oc1nc(N[C@@H](C)c2ccc(F)cc2F)cc(-c2c(N)nn3cccnc23)n1 [Compound 129]
10 to 100 | < 10 | C[C@H](Nc1cc(-c2c(N)nn3cccnc23)nc(OCC2CCOC2)n1)c1ccc(F)cc1F (some centres unmarked) [Compound 130]
10 to 100 | < 10 | C[C@H](Nc1cc(-c2c(N)nn3cccnc23)nc(O)n1)c1ccc(F)cc1F [Compound 131]
< 10 | < 10 | COc1nc(N[C@@H](C)c2ccc(F)cc2F)cc(-c2c(N)nn3cccnc23)n1 [Compound 132]
100 to 500 | 10 to 100 | COCCN(C)c1nc(N[C@@H](C)c2ccc(F)cc2F)cc(-c2c(N)nn3cccnc23)n1 [Compound 133]
10 to 100 | 10 to 100 | C[C@H](Nc1cc(-c2c(N)nn3ccc(C(F)(F)F)nc23)ncn1)c1ccc(F)cc1 [Compound 134]
100 to 500 | 10 to 100 | C[C@H](Nc1cc(-c2c(N)nn3ccc(C(F)(F)F)nc23)ncn1)c1ccc(F)cc1F [Compound 135]
100 to 500 | 10 to 100 | CC(C)[C@H](Nc1cc(-c2c(N)nn3ccc(C(F)(F)F)nc23)ncn1)c1ccc(F)cc1F [Compound 136]
100 to 500 | 100 to 500 | CCC[C@H](Nc1cc(-c2c(N)nn3ccc(C(F)(F)F)nc23)ncn1)c1ccc(F)cc1F [Compound 137]
10 to 100 | < 10 | COC(C)(C)CCOc1nc(N[C@@H](C)c2ccc(F)cc2F)cc(-c2c(N)nn3cccnc23)n1 [Compound 138]
10 to 100 | < 10 | C[C@H](Nc1cc(-c2c(N)nn3cccnc23)nc(OCC2CCCO2)n1)c1ccc(F)cc1F (some centres unmarked) [Compound 139]
< 10 | < 10 | C[C@H](Nc1cc(-c2c(N)nn3cccnc23)nc(C#N)n1)c1ccc(F)cc1F [Compound 140]
10 to 100 | < 10 | CNC(=O)CC(Nc1cc(-c2cnn3cccnc23)ncn1)c1ccc(F)cc1 (centres unmarked) [Compound 141]

Ki [1] [nM] | Ki [2] [nM] | Structure (SMILES)
100 to 500 | 10 to 100 | C[C@H](Nc1cc(-c2c(N)nn3cccnc23)nc(OCC2CCCN2)n1)c1ccc(F)cc1F (some centres unmarked) [Compound 142]
100 to 500 | 10 to 100 | C[C@H](Nc1cc(-c2c(N)nn3cccnc23)nc(OCC2(C)CC2)n1)c1ccc(F)cc1 [Compound 143]
100 to 500 | < 10 | C[C@H](Nc1cc(-c2cnn3cccnc23)ncn1)c1ccc(Cl)cc1 [Compound 144]
10 to 100 | < 10 | CC[C@H](Nc1cc(-c2cnn3cccnc23)ncn1)c1ccc(F)c(F)c1 [Compound 145]
500 to 5000 | 10 to 100 | C[C@@H](Nc1cc(-c2cnn3cccnc23)ncn1)c1ccc(Cl)cc1 [Compound 146]
10 to 100 | < 10 | C[C@H](Nc1cc(-c2cnn3cccnc23)nc(N)n1)c1ccc(F)cc1F [Compound 147]
100 to 500 | 10 to 100 | C[C@H](Nc1cc(-c2c(N)nn3cccnc23)nc(OCC2CCC2)n1)c1ccc(F)cc1 [Compound 148]
10 to 100 | < 10 | CC(C)OCCOc1nc(N[C@@H](C)c2ccc(F)cc2)cc(-c2c(N)nn3cccnc23)n1 [Compound 149]
10 to 100 | < 10 | C#CCOc1nc(N[C@@H](C)c2ccc(F)cc2)cc(-c2c(N)nn3cccnc23)n1 [Compound 150]
100 to 500 | 10 to 100 | CC#CCOc1nc(N[C@@H](C)c2ccc(F)cc2)cc(-c2c(N)nn3cccnc23)n1 [Compound 151]
10 to 100 | 10 to 100 | CC(C)=CCOc1nc(N[C@@H](C)c2ccc(F)cc2)cc(-c2c(N)nn3cccnc23)n1 [Compound 152]
10 to 100 | < 10 | CCCOc1nc(N[C@@H](C)c2ccc(F)cc2)cc(-c2c(N)nn3cccnc23)n1 [Compound 153]
10 to 100 | < 10 | C[C@H](Nc1cc(-c2c(N)nn3cccnc23)nc(OCCCN(C)C)n1)c1ccc(F)cc1 [Compound 154]
100 to 500 | < 10 | CC#CCCOc1nc(N[C@@H](C)c2ccc(F)cc2)cc(-c2c(N)nn3cccnc23)n1 [Compound 155]
100 to 500 | < 10 | C[C@H](Nc1cc(-c2c(N)nn3cccnc23)nc(OCC(F)(F)F)n1)c1ccc(F)cc1 [Compound 156]
100 to 500 | 10 to 100 | C[C@H](Nc1cc(-c2c(N)nn3cccnc23)nc(OCCC2CC2)n1)c1ccc(F)cc1 [Compound 157]
100 to 500 | 10 to 100 | CC1CC1COc1nc(N[C@@H](C)c2ccc(F)cc2)cc(-c2c(N)nn3cccnc23)n1 (some centres unmarked) [Compound 158]
100 to 500 | < 10 | C[C@H](Nc1cc(-c2c(N)nn3cccnc23)nc(OC[C@H]2CO2)n1)c1ccc(F)cc1 [Compound 159]
100 to 500 | 10 to 100 | C[C@H](Nc1cc(-c2c(N)nn3cccnc23)nc(OCCOC(C)(C)C)n1)c1ccc(F)cc1 [Compound 160]
10 to 100 | < 10 | C[C@H](Nc1cc(-c2c(N)nn3cccnc23)nc(O)n1)c1ccc(F)cc1 [Compound 161]
100 to 500 | 10 to 100 | CCC#CCOc1nc(N[C@@H](C)c2ccc(F)cc2)cc(-c2c(N)nn3cccnc23)n1 [Compound 162]
500 to 5000 | 10 to 100 | C[C@H](Nc1cc(-c2c(N)nn3cccnc23)nc(OC[C@@H]2CO2)n1)c1ccc(F)cc1 [Compound 163]
10 to 100 | < 10 | C[C@H](Nc1cc(-c2c(N)nn3cccnc23)nc(OCC2CCOC2)n1)c1ccc(F)cc1 (some centres unmarked) [Compound 164]
100 to 500 | 10 to 100 | CC/C=C\COc1nc(N[C@@H](C)c2ccc(F)cc2)cc(-c2c(N)nn3cccnc23)n1 [Compound 165]
10 to 100 | < 10 | C[C@H](Nc1cc(-c2c(N)nn3cccnc23)nc(OCC2CC2)n1)c1ccc(F)cc1 [Compound 166]
500 to 5000 | 10 to 100 | CC(C)CCCOc1nc(N[C@@H](C)c2ccc(F)cc2)cc(-c2c(N)nn3cccnc23)n1 [Compound 167]
